# According to US20200361871A1 (Enterprise Therapeutics Ltd., priority 2018, published 2020):
# “Also recorded” adds a separate entry of the source.
# Key:
# [1] = Competitive suspension equilibration of all known forms of Compound 36 in surfactant buffers; format: physicochemical; conditions: 20° C.
# Experimental: Equimolar composites of the forms of Compound 36 were stirred in each surfactant buffer configuration as follows.
# Equimolar admixtures of each form and the amorphous phase were prepared and suspended in the appropriate surfactant buffer configuration at the dose relevant concentration of 5 mg/ml and stirred at 20° C. for 13 days. Stirring was suspended, the slurries were centrifuged, supernatant decanted and the pellets were dried under reduced pressure and analysed.
# All known forms of Compound 36 were combined in approximately equimolar proportions. Each composite was suspended in Tween/Span and Tween 80 buffers (5 mg/ml concentration) in two vessels and stirred at 20° C. […] Therefore, order of succession in formulation vehicles under ambient storage supported Form A as the preferred form.
# [2] = Storage of forms of Compound 36 at 40° C./75% RH in open vials, XRPD; format: physicochemical; conditions: open vial, 14 days (2 weeks)
# Experimental: Form A was stored at 40° C./75% RH, in an open vial. […] Therefore, Form A is stable to exposure to elevated temperature and humidity for up to 2 weeks and no evidence of a hydrated form was observed.
# One sample of each of the new forms (Forms B, C, D, E, E+extra peaks, F, G and H) was analysed by ^1H NMR, TGA, DSC and stored at 40° C./75% RH. Results are summarised in Table E with Form A for comparison.
# [3] = Solubility assessment of Compound 36 Form A in solvents at 50° C.; format: physicochemical; design: key to Solubility (dissolution in solvent): ✓: material dissolved at 50° C.; x: material did not dissolve; ?: partial dissolution
# Experimental: Compound 36 (Form 1, approximately 30 mg) was weighed into 2 ml glass vials and was treated with aliquots of solvent. The samples were stirred at 50° C., 400 rpm, for approximately 10 minutes between addition of aliquots of solvent. Solvent was added until a clear solution was formed or a maximum of 60 volumes (1.8 ml) of solvent was reached.
# Samples that were solutions (or close to dissolution, sample in DCM) were cooled to 5° C. at 0.1° C./min and were stirred overnight. After cooling, the samples that contained solids were filtered using PTFE frits, dried under suction for approximately 30 minutes and were analysed by XRPD.
# Samples that were suspensions in 60 volumes of solvent were matured (shaken in cycles of 4 hours at 50° C./4 hours at RT). After 5 days, samples were filtered using PTFE frits, dried under suction for approximately 30 minutes and were analysed by XRPD.
# [4] = as above; format: physicochemical; conditions: acetone and ethanol
# [5] = target: human TMEM16A (TMEM16Aabc variant) (Homo sapiens, UniProt Q5XXA6, DEL476-501, form not given); assay: Automated whole-cell patch clamp (Qpatch) TMEM16A potentiator assay in FRT cells stably expressing human TMEM16A; format: cell-based
# Summary of the method: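 Potentiation was read as the rise in peak +70 mV current over baseline (%), from cumulative 5-min additions of compound. Recordings used whole-cell automated patch of FRT cells stably carrying human TMEM16Aabc, with pipette Ca2+ buffered to give ~20% maximal current. EC50 and efficacy came from concentration-response fits.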
# human TMEM16A (TMEM16Aabc variant), sequence (Q5XXA6 with tags, fused parts or gaps DEL476-501): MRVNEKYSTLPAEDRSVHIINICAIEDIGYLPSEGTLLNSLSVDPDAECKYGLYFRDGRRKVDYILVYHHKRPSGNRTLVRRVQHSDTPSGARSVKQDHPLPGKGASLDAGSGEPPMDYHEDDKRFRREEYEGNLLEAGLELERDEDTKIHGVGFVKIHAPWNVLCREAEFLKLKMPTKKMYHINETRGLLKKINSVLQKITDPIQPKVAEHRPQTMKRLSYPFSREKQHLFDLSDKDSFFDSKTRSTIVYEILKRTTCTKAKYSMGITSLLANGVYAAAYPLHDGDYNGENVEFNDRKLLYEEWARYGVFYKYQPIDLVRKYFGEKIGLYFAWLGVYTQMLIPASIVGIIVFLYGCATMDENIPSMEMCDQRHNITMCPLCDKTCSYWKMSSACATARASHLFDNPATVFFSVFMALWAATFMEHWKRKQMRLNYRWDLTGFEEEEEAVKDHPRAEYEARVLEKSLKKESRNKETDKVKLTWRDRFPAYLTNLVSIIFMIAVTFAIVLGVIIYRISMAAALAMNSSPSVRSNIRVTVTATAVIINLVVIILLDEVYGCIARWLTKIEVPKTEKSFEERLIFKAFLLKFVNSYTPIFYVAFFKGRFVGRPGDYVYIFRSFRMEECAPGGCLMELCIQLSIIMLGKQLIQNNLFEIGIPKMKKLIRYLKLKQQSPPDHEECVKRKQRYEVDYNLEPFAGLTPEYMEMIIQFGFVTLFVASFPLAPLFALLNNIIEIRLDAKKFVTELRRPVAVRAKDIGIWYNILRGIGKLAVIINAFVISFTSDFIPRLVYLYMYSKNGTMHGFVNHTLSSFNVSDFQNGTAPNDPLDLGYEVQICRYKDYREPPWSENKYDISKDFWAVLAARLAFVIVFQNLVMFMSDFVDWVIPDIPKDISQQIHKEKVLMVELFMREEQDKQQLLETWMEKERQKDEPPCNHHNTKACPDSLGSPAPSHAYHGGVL
structure (smiles),measurement,setting,value
"C#CC(C)(C)NC(=O)c1cc(NC(=O)Cc2cc(Cl)ccc2O)ccn1 [Compound 36 Form A, 4-[[2-(5-Chloro-2-hydroxy-phenyl)acetyl]amino]-N-(1,1-dimethylprop-2-ynyl)pyridine-2-carboxamide]",Form produced by competitive suspension equilibration (thermodynamic stability),"[1]; TWEEN 80 (0.5 mg/ml) or TWEEN 20 (0.5 mg/ml)/SPAN 20 (0.05 mg/ml), 7 to 10 days",most thermodynamically stable form
same,Storage at 40° C./75% RH (change of form by XRPD),[2],no change in form was detected; also recorded: No change (14 days)
same,Solubility (dissolution in solvent),"[3]; 2-Propanol, 5 vol, 50° C.",x
same,Solubility (dissolution in solvent),"[3]; 2-Propanol, 10 vol, 50° C.",x
same,Solubility (dissolution in solvent),"[3]; 2-Propanol, 30 vol, 50° C.",✓
same,Solubility (dissolution in solvent),"[3]; 5% aqueous ACN, 5 vol, 50° C.",x
same,Solubility (dissolution in solvent),"[3]; 5% aqueous ACN, 20 vol, 50° C.",✓
same,Solubility (dissolution in solvent),"[3]; 20% aqueous ACN, 5 vol, 50° C.",x
same,Solubility (dissolution in solvent),"[3]; 20% aqueous ACN, 10 vol, 50° C.",✓
same,Solubility (dissolution in solvent),"[3]; Acetone, 5 vol, 50° C.",✓
same,Solubility (dissolution in solvent),"[3]; Acetone, 10 vol, 50° C.",✓
same,Solubility (dissolution in solvent),"[3]; Acetonitrile, 5 vol, 50° C.",x
same,Solubility (dissolution in solvent),"[3]; Acetonitrile, 10 vol, 50° C.",x
same,Solubility (dissolution in solvent),"[3]; Acetonitrile, 30 vol, 50° C.",✓
same,Solubility (dissolution in solvent),"[3]; Dichloromethane, 5 vol, 50° C.",x
same,Solubility (dissolution in solvent),"[3]; Dichloromethane, 10 vol, 50° C.",x
same,Solubility (dissolution in solvent),"[3]; Dichloromethane, 20 vol, 50° C.",x
same,Solubility (dissolution in solvent),"[3]; Dichloromethane, 30 vol, 50° C.",x
same,Solubility (dissolution in solvent),"[3]; Ethanol, 5 vol, 50° C.",x
same,Solubility (dissolution in solvent),"[3]; Ethanol, 10 vol, 50° C.",✓
same,Solubility (dissolution in solvent),"[3]; Ethyl Acetate, 5 vol, 50° C.",x
same,Solubility (dissolution in solvent),"[3]; Ethyl Acetate, 10 vol, 50° C.",x
same,Solubility (dissolution in solvent),"[3]; Ethyl Acetate, 20 vol, 50° C.",✓
same,Solubility (dissolution in solvent),"[3]; Tetrahydrofuran, 5 vol, 50° C.",x
same,Solubility (dissolution in solvent),"[3]; Tetrahydrofuran, 10 vol, 50° C.",x
same,Solubility (dissolution in solvent),"[3]; Tetrahydrofuran, 20 vol, 50° C.",✓
same,Solubility (dissolution in solvent),"[3]; Water, 5 vol, 50° C.",x
same,Solubility (dissolution in solvent),"[3]; Water, 10 vol, 50° C.",x
same,Solubility (dissolution in solvent),"[3]; Water, 20 vol, 50° C.",x
same,Solubility (dissolution in solvent),"[3]; Water, 30 vol, 50° C.",x
same,Solubility (dissolution in solvent),"[3]; Water, 40 vol, 50° C.",x
same,Solubility (dissolution in solvent),"[3]; Water, 50 vol, 50° C.",x
same,Solubility (dissolution in solvent),"[3]; Water, 60 vol, 50° C.",x
same,Solubility (dissolution in solvent),"[3]; n-Heptane, 5 vol, 50° C.",x
same,Solubility (dissolution in solvent),"[3]; n-Heptane, 10 vol, 50° C.",x
same,Solubility (dissolution in solvent),"[3]; n-Heptane, 20 vol, 50° C.",x
same,Solubility (dissolution in solvent),"[3]; n-Heptane, 30 vol, 50° C.",x
same,Solubility (dissolution in solvent),"[3]; n-Heptane, 40 vol, 50° C.",x
same,Solubility (dissolution in solvent),"[3]; n-Heptane, 50 vol, 50° C.",x
same,Solubility (dissolution in solvent),"[3]; n-Heptane, 60 vol, 50° C.",x
same,Solubility (dissolution in solvent),"[3]; tert-Butylmethyl Ether, 5 vol, 50° C.",x
same,Solubility (dissolution in solvent),"[3]; tert-Butylmethyl Ether, 10 vol, 50° C.",x
same,Solubility (dissolution in solvent),"[3]; tert-Butylmethyl Ether, 20 vol, 50° C.",x
same,Solubility (dissolution in solvent),"[3]; tert-Butylmethyl Ether, 30 vol, 50° C.",x
same,Solubility (dissolution in solvent),"[3]; tert-Butylmethyl Ether, 40 vol, 50° C.",x
same,Solubility (dissolution in solvent),"[3]; tert-Butylmethyl Ether, 50 vol, 50° C.",x
same,Solubility (dissolution in solvent),"[3]; tert-Butylmethyl Ether, 60 vol, 50° C.",x
"C#CC(C)(C)NC(=O)c1cc(NC(=O)Cc2cc(Cl)ccc2O)ccn1 [Example 36, 4-[[2-(5-Chloro-2-hydroxy-phenyl)acetyl]amino]-N-(1,1-dimethylprop-2-ynyl)pyridine-2-carboxamide]",Form produced by competitive suspension equilibration (XRPD),"[1]; Tween/Span and Tween 80 buffers, 5 mg/ml, 13 days",consistent with Form A
same,"Solubility (relative, in words)",[4],most soluble
same,% Potentiation @ 3.33 μM Avg,"[5]; 3.33 μM solution of test compound, percentage increase of baseline TMEM16A current",199%
same,EC50,"[5]; calculated EC50, Qpatch TMEM16A current at +70 mV",20 nM
same,Solubility (in words),[3]; acetonitrile/water mixtures,freely soluble
same,Solubility (dissolution in anti-solvents),"[3]; n-heptane, water and TBME, up to 60 volumes, 50° C.",no observable dissolution
